From ChEMBL document CHEMBL1201862, “PubChem BioAssay data set” (2004)
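The compound was tested at five concentrations on cells cultured in 96-well plates, with a 48-hour exposure period. GI50 = concentration required for 50% inhibition of growth.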 The source made the active and inactive calls. Rule as the data show it: active = GI50 up to about 1.1 µM and inactive = higher.

Key:
Experiment in all cases: DTP human tumour cell line panel, 48 h
RXF 393 = tested on: RXF 393
OVCAR-3 = tested on: OVCAR-3
LOX IMVI = tested on: LOX IMVI
UACC-257 = tested on: UACC-257
RPMI-8226 = tested on: RPMI-8226
TK-10 = tested on: TK-10
CAKI-1 = tested on: CAKI-1
IGROV-1 = tested on: IGROV-1
M14 = tested on: M14
MCF7 = tested on: MCF7
SNB-19 = tested on: SNB-19
PC-3 = tested on: PC-3
HCC 2998 = tested on: HCC 2998
NCI-H522 = tested on: NCI-H522
UACC-62 = tested on: UACC-62
Malme-3M = tested on: Malme-3M
DU-145 = tested on: DU-145
MOLT-4 = tested on: MOLT-4
HL-60 = tested on: HL-60
SK-MEL-28 = tested on: SK-MEL-28
BT-549 = tested on: BT-549
ACHN = tested on: ACHN
SR = tested on: SR
MDA-MB-231 = tested on: MDA-MB-231
A549 = tested on: A549
786-0 = tested on: 786-0
OVCAR-8 = tested on: OVCAR-8
HT-29 = tested on: HT-29
MDA-N = tested on: MDA-N
NCI-H226 = tested on: NCI-H226
HOP-62 = tested on: HOP-62
KM12 = tested on: KM12
UO-31 = tested on: UO-31
SW-620 = tested on: SW-620
EKVX = tested on: EKVX
SK-MEL-5 = tested on: SK-MEL-5
HCT-15 = tested on: HCT-15
NCI/ADR-RES = tested on: NCI/ADR-RES
OVCAR-5 = tested on: OVCAR-5
SF-295 = tested on: SF-295
T47D = tested on: T47D
U-251 = tested on: U-251
SN12C = tested on: SN12C
NCI-H23 = tested on: NCI-H23
HCT-116 = tested on: HCT-116
CCRF-CEM = tested on: CCRF-CEM
K562 = tested on: K562
SK-OV-3 = tested on: SK-OV-3
COLO 205 = tested on: COLO 205
SNB-75 = tested on: SNB-75
MDA-MB-435 = tested on: MDA-MB-435
SF-539 = tested on: SF-539
SF-268 = tested on: SF-268
NCI-H460 = tested on: NCI-H460
A498 = tested on: A498
OVCAR-4 = tested on: OVCAR-4
SK-MEL-2 = tested on: SK-MEL-2
HOP-92 = tested on: HOP-92

COC(=O)C1C(OC(=O)C(Cl)(c2ccccc2)c2ccccc2)CC2CCC1N2C (stereo unspecified)
GI50 (RXF 393): > 100 µM (inactive)
GI50 (OVCAR-3): > 100 µM (inactive)
GI50 (LOX IMVI): > 100 µM (inactive)
GI50 (UACC-257): > 100 µM (inactive)
GI50 (RPMI-8226): > 100 µM (inactive)
GI50 (TK-10): > 100 µM (inactive)
GI50 (CAKI-1): 94.6 µM (inactive)
GI50 (IGROV-1): > 100 µM (inactive)
GI50 (M14): 45.1 µM (inactive)
GI50 (MCF7): > 100 µM (inactive)
GI50 (SNB-19): > 100 µM (inactive)
GI50 (PC-3): > 100 µM (inactive)
GI50 (HCC 2998): > 100 µM (inactive)
GI50 (NCI-H522): > 100 µM (inactive)
GI50 (UACC-62): > 100 µM (inactive)
GI50 (Malme-3M): > 100 µM (inactive)
GI50 (DU-145): > 100 µM (inactive)
GI50 (MOLT-4): > 100 µM (inactive)
GI50 (HL-60): > 100 µM (inactive)
GI50 (SK-MEL-28): > 100 µM (inactive)
GI50 (BT-549): > 100 µM (inactive)
GI50 (ACHN): > 100 µM (inactive)
GI50 (SR): > 100 µM (inactive)
GI50 (MDA-MB-231): > 100 µM (inactive)
GI50 (A549): > 100 µM (inactive)
GI50 (786-0): > 100 µM (inactive)
GI50 (OVCAR-8): > 100 µM (inactive)
GI50 (HT-29): > 100 µM (inactive)
GI50 (MDA-N): > 100 µM (inactive)
GI50 (NCI-H226): > 100 µM (inactive)
GI50 (HOP-62): > 100 µM (inactive)
GI50 (KM12): > 100 µM (inactive)
GI50 (UO-31): > 100 µM (inactive)
GI50 (SW-620): > 100 µM (inactive)
GI50 (EKVX): > 100 µM (inactive)
GI50 (SK-MEL-5): > 100 µM (inactive)
GI50 (HCT-15): > 100 µM
GI50 (NCI/ADR-RES): > 100 µM (inactive)
GI50 (OVCAR-5): > 100 µM (inactive)
GI50 (SF-295): > 100 µM (inactive)
GI50 (T47D): > 100 µM (inactive)
GI50 (U-251): > 100 µM (inactive)
GI50 (SN12C): > 100 µM (inactive)
GI50 (NCI-H23): > 100 µM (inactive)
GI50 (HCT-116): > 100 µM (inactive)
GI50 (CCRF-CEM): > 100 µM (inactive)
GI50 (K562): > 100 µM (inactive)
GI50 (SK-OV-3): > 100 µM (inactive)
GI50 (COLO 205): > 100 µM (inactive)
GI50 (SNB-75): > 100 µM (inactive)
GI50 (MDA-MB-435): > 100 µM (inactive)
GI50 (SF-539): > 100 µM (inactive)
GI50 (SF-268): > 100 µM (inactive)

NC(=O)C(=CN1CC(=O)NC1=S)C(N)=O
GI50 (RXF 393): > 100 µM (inactive)
GI50 (NCI-H460): > 100 µM (inactive)
GI50 (OVCAR-3): > 100 µM (inactive)
GI50 (LOX IMVI): > 100 µM (inactive)
GI50 (UACC-257): > 100 µM (inactive)
GI50 (TK-10): > 100 µM (inactive)
GI50 (CAKI-1): > 100 µM (inactive)
GI50 (A498): > 100 µM (inactive)
GI50 (IGROV-1): > 100 µM (inactive)
GI50 (M14): > 100 µM (inactive)
GI50 (MCF7): > 100 µM (inactive)
GI50 (SNB-19): > 100 µM (inactive)
GI50 (OVCAR-4): > 100 µM (inactive)
GI50 (HCC 2998): > 100 µM (inactive)
GI50 (UACC-62): > 100 µM (inactive)
GI50 (DU-145): > 100 µM (inactive)
GI50 (MOLT-4): > 100 µM (inactive)
GI50 (HL-60): > 100 µM (inactive)
GI50 (SK-MEL-28): > 100 µM (inactive)
GI50 (BT-549): > 100 µM (inactive)
GI50 (ACHN): > 100 µM (inactive)
GI50 (MDA-MB-231): > 100 µM (inactive)
GI50 (A549): > 100 µM (inactive)
GI50 (786-0): > 100 µM (inactive)
GI50 (OVCAR-8): > 100 µM (inactive)
GI50 (HT-29): > 100 µM (inactive)
GI50 (MDA-N): > 100 µM (inactive)
GI50 (SK-MEL-2): > 100 µM (inactive)
GI50 (NCI-H226): > 100 µM (inactive)
GI50 (HOP-62): > 100 µM (inactive)
GI50 (KM12): > 100 µM (inactive)
GI50 (UO-31): > 100 µM (inactive)
GI50 (HOP-92): > 100 µM (inactive)
GI50 (SW-620): > 100 µM (inactive)
GI50 (EKVX): > 100 µM (inactive)
GI50 (SK-MEL-5): > 100 µM (inactive)
GI50 (HCT-15): > 100 µM
GI50 (NCI/ADR-RES): > 100 µM (inactive)
GI50 (OVCAR-5): > 100 µM (inactive)
GI50 (SF-295): > 100 µM (inactive)
GI50 (T47D): > 100 µM (inactive)
GI50 (U-251): > 100 µM (inactive)
GI50 (SN12C): > 100 µM (inactive)
GI50 (NCI-H23): > 100 µM (inactive)
GI50 (HCT-116): > 100 µM (inactive)
GI50 (SK-OV-3): > 100 µM (inactive)
GI50 (COLO 205): > 100 µM (inactive)
GI50 (SNB-75): > 100 µM (inactive)
GI50 (MDA-MB-435): > 100 µM (inactive)
GI50 (SF-539): > 100 µM (inactive)
GI50 (SF-268): > 100 µM (inactive)

COc1ccc(CNc2nc3cc(C(F)(F)F)ccc3nc2C(=O)O)cc1OC
GI50 (NCI-H460): 36.6 µM (inactive)
GI50 (OVCAR-3): 22.3 µM (inactive)
GI50 (LOX IMVI): 33.7 µM (inactive)
GI50 (UACC-257): 34.2 µM (inactive)
GI50 (RPMI-8226): 28.1 µM (inactive)
GI50 (CAKI-1): 28.6 µM (inactive)
GI50 (A498): 27.5 µM (inactive)
GI50 (IGROV-1): 12.2 µM (inactive)
GI50 (M14): 32 µM (inactive)
GI50 (MCF7): 23.2 µM (inactive)
GI50 (SNB-19): 29.6 µM (inactive)
GI50 (OVCAR-4): 48.2 µM (inactive)
GI50 (PC-3): 27.5 µM (inactive)
GI50 (HCC 2998): 36 µM (inactive)
GI50 (UACC-62): 20.5 µM (inactive)
GI50 (DU-145): 41.4 µM (inactive)
GI50 (MOLT-4): 22.8 µM (inactive)
GI50 (SK-MEL-28): 67 µM (inactive)
GI50 (BT-549): 41.2 µM (inactive)
GI50 (ACHN): 26.1 µM (inactive)
GI50 (SR): 23.9 µM (inactive)
GI50 (MDA-MB-231): 32.5 µM (inactive)
GI50 (A549): 35.6 µM (inactive)
GI50 (786-0): 32.9 µM (inactive)
GI50 (OVCAR-8): 42.6 µM (inactive)
GI50 (HT-29): 35.6 µM (inactive)
GI50 (MDA-N): 36.5 µM (inactive)
GI50 (SK-MEL-2): 23.2 µM (inactive)
GI50 (NCI-H226): 64.1 µM (inactive)
GI50 (HOP-62): 22 µM (inactive)
GI50 (KM12): 32.1 µM (inactive)
GI50 (UO-31): 28.3 µM (inactive)
GI50 (HOP-92): 27.2 µM (inactive)
GI50 (SW-620): 43.5 µM (inactive)
GI50 (EKVX): 31.8 µM (inactive)
GI50 (SK-MEL-5): 20.8 µM (inactive)
GI50 (HCT-15): 29.4 µM
GI50 (NCI/ADR-RES): 34 µM (inactive)
GI50 (OVCAR-5): 46 µM (inactive)
GI50 (SF-295): 34 µM (inactive)
GI50 (T47D): 37.8 µM (inactive)
GI50 (U-251): 24.3 µM (inactive)
GI50 (SN12C): 26.8 µM (inactive)
GI50 (NCI-H23): 33.4 µM (inactive)
GI50 (HCT-116): 29 µM (inactive)
GI50 (CCRF-CEM): 18.4 µM (inactive)
GI50 (K562): 24.4 µM (inactive)
GI50 (SK-OV-3): 29.7 µM (inactive)
GI50 (COLO 205): 22.5 µM (inactive)
GI50 (SNB-75): 47.9 µM (inactive)
GI50 (MDA-MB-435): 26.7 µM (inactive)
GI50 (SF-539): 32.5 µM (inactive)
